Reference: PubChem BioAssay AID256 (DTP/NCI, 2004)
Values joined by “and” are separate entries in the source; they are usually repeats but may differ in a detail not shown here. Equal entries are not always repeated. Inconclusive results and toxic doses are left out. Rule for the calls: active = survival T/C of 150% or more; inactive = T/C below 125% in these data.

System: CD2F1 mice, L1210 leukemia ip, survival T/C
Assay: NCI In Vivo Anticancer Drug Screen. Data for tumor model L1210 Leukemia (intraperitoneal) in CD2F1 (CDF1) mice
Conditions: higher = longer survival
Outline: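 In this screen, transplantable tumors were grown in mice given either the compound or its vehicle. Results were expressed as the treated measurement relative to the control measurement.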

[1] = endpoint: mean survival time, dose: 50.0 mg/kg/injection, schedule: Q04DX003 (ip), vehicle: saline with Tween-80
[2] = endpoint: mean survival time, dose: 100.0 mg/kg/injection, schedule: Q01DX001 (ip), vehicle: saline with Tween-80
[3] = endpoint: mean survival time, dose: 100.0 mg/kg/injection, schedule: Q01DX009 (ip), vehicle: saline with Tween-80
[4] = endpoint: mean survival time, dose: 100.0 mg/kg/injection, schedule: Q04DX002 (ip), vehicle: saline with Tween-80
[5] = endpoint: mean survival time, dose: 100.0 mg/kg/injection, schedule: Q04DX003 (ip), vehicle: saline with Tween-80
[6] = endpoint: mean survival time, dose: 200.0 mg/kg/injection, schedule: Q01DX001 (ip), vehicle: saline with Tween-80
[7] = endpoint: mean survival time, dose: 200.0 mg/kg/injection, schedule: Q01DX009 (ip), vehicle: saline with Tween-80
[8] = endpoint: mean survival time, dose: 200.0 mg/kg/injection, schedule: Q04DX002 (ip), vehicle: saline with Tween-80
[9] = endpoint: mean survival time, dose: 200.0 mg/kg/injection, schedule: Q04DX003 (ip), vehicle: saline with Tween-80
[10] = endpoint: mean survival time, dose: 400.0 mg/kg/injection, schedule: Q01DX001 (ip), vehicle: saline with Tween-80
[11] = endpoint: mean survival time, dose: 400.0 mg/kg/injection, schedule: Q04DX002 (ip), vehicle: saline with Tween-80
[12] = endpoint: mean survival time, dose: 400.0 mg/kg/injection, schedule: Q01DX009 (ip), vehicle: saline with Tween-80
[13] = endpoint: mean survival time, dose: 400.0 mg/kg/injection, schedule: Q04DX003 (ip), vehicle: saline with Tween-80
[14] = endpoint: mean survival time, dose: 100.0 mg/kg/injection, schedule: Q01DX001 (ip), vehicle: saline
[15] = endpoint: mean survival time, dose: 200.0 mg/kg/injection, schedule: Q01DX001 (ip), vehicle: saline
[16] = endpoint: mean survival time, dose: 400.0 mg/kg/injection, schedule: Q01DX001 (ip), vehicle: saline

Measured: T/C

CCOC(=O)c1ccc(NC(=O)Nc2ccc(N(C)C(C)=O)cc2)cc1
inactive: endpoint: mean survival time, dose: 25.0 mg/kg/injection, schedule: Q04DX003 (ip), vehicle: saline with Tween-80 98 % of control | endpoint: mean survival time, dose: 50.0 mg/kg/injection, schedule: Q01DX009 (ip), vehicle: saline with Tween-80 87 % of control | [1] 96 % of control | [2] 100 % of control | [3] 87 % of control and 101 % of control | [4] 90 % of control and 97 % of control | [5] 94 % of control and 109 % of control | [6] 97 % of control | [7] 90 % of control and 91 % of control | [8] 87 % of control and 91 % of control | [9] 104 % of control | [10] 102 % of control | [11] 88 % of control and 94 % of control

COC(=O)[C@]1(C)CCC[C@]2(C)[C@H]3CC4OO[C@@]3(CC[C@H]21)[C@H]1O[C@@]41C(C)C
inactive: [3] 97 % of control | endpoint: mean survival time, dose: 125.0 mg/kg/injection, schedule: Q01DX009 (ip), vehicle: Klucel (hydroxypropylcellulose) (HPC) 96 % of control | [7] 101 % of control | endpoint: mean survival time, dose: 250.0 mg/kg/injection, schedule: Q01DX009 (ip), vehicle: Klucel (hydroxypropylcellulose) (HPC) 96 % of control | [12] 98 % of control | endpoint: mean survival time, dose: 500.0 mg/kg/injection, schedule: Q01DX009 (ip), vehicle: Klucel (hydroxypropylcellulose) (HPC) 97 % of control

O=c1[nH]c(C(Cl)(Cl)Cl)nc2ccc(Cl)cc12
inactive: [5] 101 % of control | [9] 96 % of control | [13] 98 % of control

CS(=O)(=O)OCC1NC(=O)C(COS(C)(=O)=O)NC1=O (centres undefined)
inactive: endpoint: mean survival time, dose: 3.13 mg/kg/injection, schedule: Q01DX009 (ip), vehicle: water 103 % of control | endpoint: mean survival time, dose: 6.25 mg/kg/injection, schedule: Q01DX009 (ip), vehicle: water 101 % of control | endpoint: mean survival time, dose: 12.5 mg/kg/injection, schedule: Q01DX009 (ip), vehicle: water 105 % of control | endpoint: mean survival time, dose: 25.0 mg/kg/injection, schedule: Q01DX009 (ip), vehicle: water 106 % of control | endpoint: mean survival time, dose: 50.0 mg/kg/injection, schedule: Q01DX009 (ip), vehicle: water 101 % of control | endpoint: mean survival time, dose: 100.0 mg/kg/injection, schedule: Q01DX009 (ip), vehicle: water 100 % of control

CC(C)C(=O)Nc1nc(OCCc2ccc([N+](=O)[O-])cc2)c2ncn(C3CC(O)C(CO)O3)c2n1 (centres undefined)
inactive: endpoint: median survival time, dose: 12.5 mg/kg/injection, schedule: Q01DX005 (ip), vehicle: saline with Tween-80 101 % of control | endpoint: median survival time, dose: 25.0 mg/kg/injection, schedule: Q01DX005 (ip), vehicle: saline with Tween-80 97 % of control | endpoint: median survival time, dose: 50.0 mg/kg/injection, schedule: Q01DX005 (ip), vehicle: saline with Tween-80 97 % of control | endpoint: median survival time, dose: 100.0 mg/kg/injection, schedule: Q01DX005 (ip), vehicle: saline with Tween-80 95 % of control | endpoint: median survival time, dose: 200.0 mg/kg/injection, schedule: Q01DX005 (ip), vehicle: saline with Tween-80 86 % of control

NCc1ccc(-n2cnc3c(=O)[nH]c(N)nc32)cc1
inactive: endpoint: mean survival time, dose: 50.0 mg/kg/injection, schedule: Q04DX002 (ip), vehicle: saline with Tween-80 90 % of control | [4] 107 % of control | [8] 101 % of control

COC(=O)c1cccc(O)c1O
inactive: endpoint: mean survival time, dose: 100.0 mg/kg/injection, schedule: Q04DX002 (ip), vehicle: other 98 % of control | endpoint: mean survival time, dose: 200.0 mg/kg/injection, schedule: Q04DX002 (ip), vehicle: other 92 % of control | endpoint: mean survival time, dose: 400.0 mg/kg/injection, schedule: Q04DX002 (ip), vehicle: other 95 % of control

O=C1CCC(=O)N1C1c2ccccc2Oc2ccccc21
inactive: endpoint: mean survival time, dose: 100.0 mg/kg/injection, schedule: Q01DX009 (ip), vehicle: saline 96 % of control | endpoint: mean survival time, dose: 200.0 mg/kg/injection, schedule: Q01DX009 (ip), vehicle: saline 91 % of control | endpoint: mean survival time, dose: 400.0 mg/kg/injection, schedule: Q01DX009 (ip), vehicle: saline 92 % of control

COC(=O)/C=C/c1ccc([N+](=O)[O-])cc1
inactive: [3] 100 % of control | [7] 100 % of control | [12] 105 % of control

CNC(=S)NC1CCCCC1
inactive: [5] 97 % of control | [9] 100 % of control | [13] 89 % of control

CCCCN=C(N)CCl
inactive: endpoint: mean survival time, dose: 25.0 mg/kg/injection, schedule: Q04DX002 (ip), vehicle: saline 100 % of control | endpoint: mean survival time, dose: 50.0 mg/kg/injection, schedule: Q04DX002 (ip), vehicle: saline 100 % of control | endpoint: mean survival time, dose: 100.0 mg/kg/injection, schedule: Q04DX002 (ip), vehicle: saline 100 % of control and 111 % of control

CCCC(=O)Nc1cc2c3c(c1)CCCN3CCC2
inactive: endpoint: mean survival time, dose: 6.25 mg/kg/injection, schedule: Q01DX009 (ip), vehicle: saline with Tween-80 97 % of control | endpoint: mean survival time, dose: 12.5 mg/kg/injection, schedule: Q01DX009 (ip), vehicle: saline with Tween-80 97 % of control | endpoint: mean survival time, dose: 25.0 mg/kg/injection, schedule: Q01DX009 (ip), vehicle: saline with Tween-80 98 % of control

O.O.O=C(O)CC(=O)O.[NH-]C1CCCCC1[NH-].[Pt+2] (centres undefined)
inactive: endpoint: mean survival time, dose: 12.5 mg/kg/injection, schedule: Q04DX003 (ip), vehicle: dextrose 98 % of control

CC1=C(c2ccccc2)C(c2ccccc2)C(C)C1=O (centres undefined)
inactive: [3] 100 % of control | [7] 98 % of control | [12] 87 % of control

O=C(CO)C(OC1OC(CO)C(O)C(O)C1O)C(O)C(O)CO (centres undefined)
inactive: [14] 103 % of control | [15] 97 % of control | [16] 100 % of control

Cc1ccc2nc(-c3ccc4nc(-c5ccc(N)cc5)sc4c3)sc2c1S(=O)(=O)O
inactive: endpoint: mean survival time, dose: 100.0 mg/kg/injection, schedule: Q04DX003 (ip), vehicle: saline 109 % of control | endpoint: mean survival time, dose: 200.0 mg/kg/injection, schedule: Q04DX003 (ip), vehicle: saline 107 % of control | endpoint: mean survival time, dose: 400.0 mg/kg/injection, schedule: Q04DX003 (ip), vehicle: saline 112 % of control

CC(C)(O)C(=O)N/N=C/c1ccc(Cl)cc1
inactive: [3] 90 % of control | [7] 90 % of control

CCOC(=O)C(CC)(C(=O)OCC)c1c(Cl)c(=O)oc2ccc(Cl)cc12
inactive: [2] 100 % of control | [6] 97 % of control | [10] 91 % of control

CCOC(=S)SCCCC(C)CC (centres undefined)
inactive: [14] 100 % of control | [15] 102 % of control | [16] 102 % of control

CCOC(=O)C12CCCCC1C/C(=N/NC(N)=O)CC2 (centres undefined)
inactive: [1] 96 % of control | endpoint: mean survival time, dose: 100.0 mg/kg/injection, schedule: Q01DX001 (ip), vehicle: acetone 92 % of control | endpoint: mean survival time, dose: 100.0 mg/kg/injection, schedule: Q04DX003 (ip), vehicle: acetone 96 % of control | [5] 96 % of control | endpoint: mean survival time, dose: 200.0 mg/kg/injection, schedule: Q01DX001 (ip), vehicle: acetone 94 % of control | [6] 88 % of control | endpoint: mean survival time, dose: 200.0 mg/kg/injection, schedule: Q04DX003 (ip), vehicle: acetone 90 % of control | endpoint: mean survival time, dose: 400.0 mg/kg/injection, schedule: Q01DX001 (ip), vehicle: acetone 97 % of control | endpoint: mean survival time, dose: 400.0 mg/kg/injection, schedule: Q04DX003 (ip), vehicle: acetone 90 % of control

CC(=O)c1c(C)c2c(C)cc3oc(=O)c(C(C)=O)c(C)c3c2oc1=O
inactive: [8] 92 % of control | [11] 87 % of control

O=P(NC1CCCCC1)(NC1CCCCC1)NC1CCCCC1
inactive: [1] 93 % of control | [5] 90 % of control | [9] 91 % of control

CC(C)CC(NC(=O)c1ccccc1)C(N)=O (centres undefined)
inactive: [5] 101 % of control | [9] 97 % of control | [13] 92 % of control
